IC50 data for one compound are collected here from patent publication US20050203135A1, “Antagonists for treatment of CD/11CD18 adhesion receptor mediated disorders” (Genentech, Inc., priority 1998, published 2005).

Test [1] addresses T1, human LFA-1:ICAM-1 (Homo sapiens, UniProt P05107+P20701).
T1 construct: containing the full-length cDNAs for the aL (CD11a) and b2 (CD18) subunits; made in house
The test can be described thus: human LFA-1:ICAM-1 receptor binding assay (format not stated).

In test [2] the test system is HuT 78 cell adhesion to 5dICAM-Ig. Nature of the test: Human T-cell adhesion assay (cell attachment assay). In kind it is cell-based. The conditions noted are these: HuT78. The method, then: The T-cell adhesion assay is performed using a human T-lymphoid cell line HuT 78. Goat anti-HuIgG(Fc) was diluted to 2 μg/ml in PBS and 96-well plates were coated with 50 μl/well @ 37° C. for 1 h. Plates were washed with PBS and blocked for 1 h @ room temperature with 1% BSA in PBS. 5 domain ICAM-Ig was diluted to 100 ng/ml in PBS and 50 μl/well was added to the plates O/N @ 4° C. HuT 78 cells were centrifuged at 100 g and the cell pellet was treated with 5 mM EDTA for 5′ at 37° C. in a 5% CO2 incubator. Cells were washed in 0.14M NaCl, 0.02M Hepes, 0.2% Glucose and 0.1 mM MnCl2 (assay buffer) and centrifuged. The cells were resuspended in assay buffer to 3.0×10^6 c/ml. Inhibitors were diluted in assay buffer to a 2× final concentration and pre-incubated with HuT 78 cells for 30′ at room temperature. 100 μl/well of cells and inhibitors were added to the plates and incubated at room temperature for 1 h. 100 μl/well PBS was added and the plates were sealed and centrifuged inverted at 100 g for 5′. Unattached cells were flicked out of the plate and excess PBS was blotted on a paper towel. […] The enzyme reaction was stopped with 90 μl/well 50 mM Glycine/5 mM EDTA and read on a platereader at […]. HUT 78 cell adhesion to 5dICAM-Ig is measured using the p-nitrophenyl n-acetyl-β-D-glucosaminide method of Landegren, U. (1984) J. Immunol. […]

pIC50: −log10 of the molar value.

T1 sequence (P20701 26-1170): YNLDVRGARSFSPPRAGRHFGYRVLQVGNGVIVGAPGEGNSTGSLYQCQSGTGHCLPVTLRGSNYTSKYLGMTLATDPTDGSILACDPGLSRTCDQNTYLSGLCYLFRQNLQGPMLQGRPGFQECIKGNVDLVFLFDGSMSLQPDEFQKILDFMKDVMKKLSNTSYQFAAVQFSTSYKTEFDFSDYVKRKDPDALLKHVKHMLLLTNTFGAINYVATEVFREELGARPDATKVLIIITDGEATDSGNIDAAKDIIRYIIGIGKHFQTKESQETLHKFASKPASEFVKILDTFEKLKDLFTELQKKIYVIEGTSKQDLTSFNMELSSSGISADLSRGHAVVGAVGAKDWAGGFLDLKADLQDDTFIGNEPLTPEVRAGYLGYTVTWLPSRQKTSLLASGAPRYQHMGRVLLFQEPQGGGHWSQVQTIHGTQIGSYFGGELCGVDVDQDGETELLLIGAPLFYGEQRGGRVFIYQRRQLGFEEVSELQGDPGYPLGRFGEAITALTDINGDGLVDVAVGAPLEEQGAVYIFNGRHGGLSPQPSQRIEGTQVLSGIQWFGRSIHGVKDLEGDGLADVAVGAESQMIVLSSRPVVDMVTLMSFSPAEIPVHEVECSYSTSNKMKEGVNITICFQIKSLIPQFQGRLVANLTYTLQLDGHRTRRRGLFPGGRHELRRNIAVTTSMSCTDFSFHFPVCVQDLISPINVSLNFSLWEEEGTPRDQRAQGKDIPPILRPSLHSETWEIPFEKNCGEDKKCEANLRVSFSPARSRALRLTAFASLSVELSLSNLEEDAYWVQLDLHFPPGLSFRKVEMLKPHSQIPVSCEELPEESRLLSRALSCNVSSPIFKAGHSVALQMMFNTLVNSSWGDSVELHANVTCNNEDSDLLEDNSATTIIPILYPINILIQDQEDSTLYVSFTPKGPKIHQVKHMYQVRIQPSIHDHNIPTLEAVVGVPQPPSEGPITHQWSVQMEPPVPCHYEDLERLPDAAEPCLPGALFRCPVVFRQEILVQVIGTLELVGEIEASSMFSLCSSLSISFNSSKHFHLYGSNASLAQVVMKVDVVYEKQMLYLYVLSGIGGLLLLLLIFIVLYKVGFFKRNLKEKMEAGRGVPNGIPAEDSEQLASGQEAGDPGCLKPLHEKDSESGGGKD
T1 sequence (P05107 23-769): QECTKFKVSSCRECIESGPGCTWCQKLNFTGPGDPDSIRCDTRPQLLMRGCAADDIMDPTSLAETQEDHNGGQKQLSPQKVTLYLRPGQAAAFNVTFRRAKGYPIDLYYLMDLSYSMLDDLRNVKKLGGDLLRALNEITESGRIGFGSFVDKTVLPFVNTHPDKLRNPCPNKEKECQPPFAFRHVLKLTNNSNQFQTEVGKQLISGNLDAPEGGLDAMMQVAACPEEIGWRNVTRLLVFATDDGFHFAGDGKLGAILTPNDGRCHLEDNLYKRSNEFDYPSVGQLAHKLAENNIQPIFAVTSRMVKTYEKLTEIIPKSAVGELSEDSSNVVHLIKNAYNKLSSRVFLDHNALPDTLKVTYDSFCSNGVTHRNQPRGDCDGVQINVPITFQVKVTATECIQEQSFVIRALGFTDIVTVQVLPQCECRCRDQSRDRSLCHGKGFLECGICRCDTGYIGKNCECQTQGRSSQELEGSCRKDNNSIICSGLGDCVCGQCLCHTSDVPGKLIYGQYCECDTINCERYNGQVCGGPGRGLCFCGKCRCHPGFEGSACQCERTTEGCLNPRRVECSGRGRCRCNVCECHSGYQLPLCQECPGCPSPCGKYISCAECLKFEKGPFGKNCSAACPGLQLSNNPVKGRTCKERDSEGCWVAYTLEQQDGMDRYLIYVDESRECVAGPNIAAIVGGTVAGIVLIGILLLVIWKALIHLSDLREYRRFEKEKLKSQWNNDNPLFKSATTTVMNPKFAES

As for `O=C(N[C@@H](Cc1c[nH]c2ccccc12)C(=O)O)c1ccccc1Br` [2-Bromobenzoyltryptophan], the negative logarithm of the IC50 (pIC50) was approximately 5.70 in test [1] and approximately 5.00 in test [2].
